The test has as its target T1, human P2X3 (Homo sapiens, UniProt P56373).
T1 construct: expressed in transfected cells
T1 sequence (P56373 1-397): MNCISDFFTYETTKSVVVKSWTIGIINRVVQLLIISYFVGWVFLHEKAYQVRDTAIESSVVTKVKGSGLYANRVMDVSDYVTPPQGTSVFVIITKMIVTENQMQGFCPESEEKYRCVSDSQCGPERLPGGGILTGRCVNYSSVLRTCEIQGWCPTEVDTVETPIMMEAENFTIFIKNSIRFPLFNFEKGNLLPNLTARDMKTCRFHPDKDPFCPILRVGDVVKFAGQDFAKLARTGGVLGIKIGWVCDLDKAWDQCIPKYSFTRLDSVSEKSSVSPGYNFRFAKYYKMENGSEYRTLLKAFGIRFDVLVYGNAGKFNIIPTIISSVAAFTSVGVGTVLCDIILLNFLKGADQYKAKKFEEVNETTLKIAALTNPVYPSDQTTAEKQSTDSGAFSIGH
Description: Intracellular Calcium Measurement to Assess Antagonist Affinity (FLIPR, Fluo-4). Type of test: cell-based. Conditions: Intracellular Calcium Measurement assay; agonist α,β-meATP at EC50. From the text: Generation of a Human P2X3 and P2X2/3 Stable Cell Line—Human P2X3 receptor cDNA (Accession number NM_002559) was subcloned as a 5′XhoI and 3′HindIII fragment into the expression vector pcDNA5/FRT (Invitrogen). Human P2X2 receptor cDNA (Accession number NM_174873) was subcloned as a 5′EcoRI and 3′NotI fragment into the expression vector pIRESneo2 (BD Biosciences Clontech). The human P2X3 expression construct was transfected using Lipofectamine 2000 (Invitrogen) into Flp-in—293 cells (Invitrogen) according to the manufacturer's directions. Cells positive for flp-mediated recombination of […] P2X3 were selected using 150 μg/ml hygromycin. The stable human P2X3 cell line was co-transfected with the human P2X2 expression construct using Lipofectamine 2000 as above and co-transfected cells selected using […] hygromycin and 1 mg/ml G418. The stable P2X3 cell line was propagated in DMEM, 10% FBS, 100 μg/ml hygromycin, and 100 units/ml penicillin and 100 μg/ml streptomycin, and maintained at 37° and 95% humidity. The stable P2X2/3 cell line was propagated as above with the addition of 500 μg/ml G418.
Intracellular Calcium Measurement to Assess Antagonist Affinity—A fluorescent imaging plate reader (FLIPR; Molecular Devices) was used to monitor intracellular calcium levels using the calcium-chelating dye Fluo-4 (Molecular Probes). The excitation and emission wavelengths used to monitor fluorescence were 488 nm and 530 nm, respectively. Cells expressing either human P2X3 or human P2X2/3 were plated at a density of 20,000 cells/well (20 μl/well) in 384-well black-walled plates approximately 20 hours before beginning the assay. On the day of the assay 20 μl of loading buffer (Hank's balanced salt solution, 2.5 mM CaCl2, 20 mM HEPES, 0.1% BSA, 2.5 mM probenecid, TR-40, Fluo-4, and 138 mM NMDG substituted for NaCl) is added and cells dye-loaded for 60 min in the dark at room temperature. Ten minutes prior to adding agonist, the antagonist was added in a volume of 10 μl and allowed to incubate at room temperature. During this period fluorescence data is collected at 3 sec intervals followed by 10 sec intervals. The agonist, α,β-meATP, is added at a 6× concentration ([α,β-meATP]final=EC50). Following agonist addition fluorescence was measured at 5 sec intervals and analyzed based on the increase in peak relative fluorescence units (RFU) compared to the basal fluorescence. Peak fluorescence was used to determine the inhibitory effect at each concentration of antagonist by the following equation: % Inhibition=100*(1−((RFU(drug)−RFU(control))/(RFU(DMSO only)−RFU(control)))) In vitro Electrophysiological Assay—Cells expressing human P2X3 receptors were grown to a confluence of 65-85% 20 to 32 hours prior to assay. […]

Drawing on patent US8247401B2, “P2X3 receptor antagonists for treatment of pain” (Merck Sharp & Dohme Corp., priority 2007, dated 2012), this text covers IC50 for four molecules.

The IC50 is the concentration at which inhibition is half-maximal.

In the case of `Cc1ccc(-c2cc(C(=O)NC(C)c3nnc[nH]3)cc(N3CCOCC3)c2)c(F)c1` (stereo in doubt) [Example 4.109, 2′-Fluoro-4′-methyl-5-morpholin-4-yl-N-[(1R)-1-(1H-1,2,4-triazol-3-yl)ethyl]biphenyl-3-carboxamide], the IC50 is 20 nM.
Consider `Cc1ccc(-c2cc(C(=O)N[C@H](C)c3ncc(F)cc3F)cc(-c3nnc(C4CC4)n3C)c2)nc1` [Example 4.3], for which the 50% inhibitory concentration (IC50) turned out to be 11 nM.
Under `Cc1ccc(-c2cc(C(=O)N[C@H](C)c3ccc(F)cn3)cc(-c3ncccc3F)c2)nc1` [Example 4.252, 3-(3-Fluoropyridin-2-yl)-N-[(1R)-1-(5-fluoropyridin-2-yl)ethyl]-5-(5-methylpyridin-2-yl)benzamide] stands 8 nM; under `C[C@@H](NC(=O)c1cc(-c2ccc(Cl)cn2)cc(C(C)(C)O)c1)c1ccc(C(F)(F)F)[n+]([O-])c1` [Example 4.539, 3-(5-Chloropyridin-2-yl)-5-(1-hydroxy-1-methylethyl)-N-{(1R)-1-[1-oxido-6-(trifluoromethyl)pyridin-3-yl]-ethyl}benzamide], 26 nM.
